Patent publication US20080299176A1, “DRUG DELIVERY DEVICE COMPRISING CROSSLINKED POLYURETHANE-SILOXANE-CONTAINING COPOLYMERS” (priority 2007, published 2008)

Experiment: Diffusion of FA through the copolymer membranes (Valia-Chien diffusion apparatus)
Assay type: physicochemical
Details: membrane of Example 5 composition, thickness 100 μm; PBS, 37° C.; FA 2 mg in donor cell; HPLC at 238 nm
Procedure: The diffusion was carried out using Valia-Chien diffusion apparatus. FA and membranes with a composition described in Example 5 were used. FA (2 mg) and PBS (3.2 mL) were added to each of the donor cells, and 3.2 mL PBS were added in each of the receptor cells. The cells were capped and the temperature was kept at 37° C. using a circulating water bath. At given time intervals, the diffusion media in the receptor cells were removed and replaced by fresh PBS. FA concentration in the release media was determined using a set of HP series 1100 HPLC instruments equipped with a degasser, a binary pump, an auto sampler and a DAD detector. The column used was an Altima C18 (5μ, 250 mm×4.6 mm). The mobile phase was 40% ACN in water and the flow rate was 1.0 mL/m in. The eluted FA was detected at 238 nm. The concentration of FA in the media was directly determined using HPLC. The diffusion rate of FA through the copolymer membranes with a thickness of 100 μm was estimated to be 1.4 μg/cm^2/hour.

Structure (SMILES): CC1(C)O[C@@H]2C[C@H]3[C@@H]4C[C@H](F)C5=CC(=O)C=C[C@]5(C)[C@@]4(F)[C@@H](O)C[C@]3(C)[C@]2(C(=O)CO)O1 [FA, fluocinolone acetonide]
- diffusion rate of FA through the copolymer membranes: 1.4 μg/cm^2/hour
